According to the NIST ThermoML archive (doi:10.1016/j.jct.2015.02.024):
± gives the expanded uncertainty stated by the source.

Key:
[1] = for viscosity / mass density: 101.33 kPa, Liquid; for viscosity: Falling or rolling sphere viscometry; for mass density: Vibrating tube method
[2] = activity coefficient (dimensionless); of the first substance listed, at infinite dilution; xn = mol fraction of the nth substance listed; conditions: 101 kPa, Liquid, Chromatography, x1 = 0

C[N+]1(CCCO)CCOCC1.O=S(=O)([N-]S(=O)(=O)C(F)(F)F)C(F)(F)F
[1]
Conditions | mass density [kg/m3] | viscosity [mPa·s]
298.15 K | 1536.09 ± 4.6 | 1183 ± 130
308.15 K | 1527.32 ± 4.6 | 565.7 ± 47
318.15 K | 1518.74 ± 4.5 | 280.7 ± 17
328.15 K | 1510.14 ± 4.5 | 156.1 ± 6.8
338.15 K | 1501.59 ± 4.4 | 94.49 ± 3
348.15 K | 1493.08 ± 4.4 | 61.14 ± 1.6
358.15 K | 1484.63 ± 4.3 | 37.79 ± 1
368.15 K | 1476.24 ± 4.3 | 27.09 ± 0.71

[1], DTA
Conditions | Glass transition temperature [°C] | Normal melting temperature [°C]
Crystal | – | 14 ± 0.4
Glass | -52.5 ± 0.4 | –

C=CCCCC [hex-1-ene] + C[N+]1(CCCO)CCOCC1.O=S(=O)([N-]S(=O)(=O)C(F)(F)F)C(F)(F)F
[2]
Conditions | activity coefficient
318.15 K | 58.2 ± 4
328.15 K | 51.7 ± 3.5
338.15 K | 45.2 ± 3.1
348.15 K | 40.5 ± 2.8
358.15 K | 35.9 ± 2.5

CCCCCC [hexane] + C[N+]1(CCCO)CCOCC1.O=S(=O)([N-]S(=O)(=O)C(F)(F)F)C(F)(F)F
[2]
Conditions | activity coefficient
298.15 K | 267 ± 18
308.15 K | 201 ± 14
318.15 K | 154 ± 11
328.15 K | 122 ± 8

CO [methanol] + C[N+]1(CCCO)CCOCC1.O=S(=O)([N-]S(=O)(=O)C(F)(F)F)C(F)(F)F
[2]
Conditions | activity coefficient
318.15 K | 0.945 ± 0.06
328.15 K | 0.929 ± 0.059
338.15 K | 0.915 ± 0.058
348.15 K | 0.899 ± 0.057
358.15 K | 0.884 ± 0.056
368.15 K | 0.872 ± 0.056

CCCC(=O)OC [methyl butanoate] + C[N+]1(CCCO)CCOCC1.O=S(=O)([N-]S(=O)(=O)C(F)(F)F)C(F)(F)F
[2]
Conditions | activity coefficient
318.15 K | 2.41 ± 0.16
328.15 K | 2.48 ± 0.17
338.15 K | 2.56 ± 0.17
348.15 K | 2.62 ± 0.18
358.15 K | 2.68 ± 0.18
368.15 K | 2.75 ± 0.19

COC(C)=O [methyl ethanoate] + C[N+]1(CCCO)CCOCC1.O=S(=O)([N-]S(=O)(=O)C(F)(F)F)C(F)(F)F
[2]
Conditions | activity coefficient
318.15 K | 0.926 ± 0.059
328.15 K | 0.971 ± 0.061
338.15 K | 1.02 ± 0.06
348.15 K | 1.06 ± 0.07
358.15 K | 1.1 ± 0.07
368.15 K | 1.14 ± 0.07

CCC(=O)OC [methyl propanoate] + C[N+]1(CCCO)CCOCC1.O=S(=O)([N-]S(=O)(=O)C(F)(F)F)C(F)(F)F
[2]
Conditions | activity coefficient
318.15 K | 1.45 ± 0.1
328.15 K | 1.51 ± 0.1
338.15 K | 1.57 ± 0.1
348.15 K | 1.63 ± 0.11
358.15 K | 1.68 ± 0.11
368.15 K | 1.74 ± 0.12

CC1CCCCC1 [methylcyclohexane] + C[N+]1(CCCO)CCOCC1.O=S(=O)([N-]S(=O)(=O)C(F)(F)F)C(F)(F)F
[2]
Conditions | activity coefficient
318.15 K | 102 ± 7
328.15 K | 84.7 ± 5.8
338.15 K | 73.3 ± 5
348.15 K | 64.4 ± 4.4
358.15 K | 55 ± 3.8
368.15 K | 49.1 ± 3.4

CCCCCCCCC [nonane] + C[N+]1(CCCO)CCOCC1.O=S(=O)([N-]S(=O)(=O)C(F)(F)F)C(F)(F)F
[2]
Conditions | activity coefficient
318.15 K | 445 ± 31
328.15 K | 385 ± 26
338.15 K | 332 ± 23
348.15 K | 287 ± 20
358.15 K | 249 ± 17
368.15 K | 224 ± 15

C=CCCCCCC [oct-1-ene] + C[N+]1(CCCO)CCOCC1.O=S(=O)([N-]S(=O)(=O)C(F)(F)F)C(F)(F)F
[2]
Conditions | activity coefficient
318.15 K | 133 ± 9
328.15 K | 117 ± 8
338.15 K | 106 ± 7
348.15 K | 94.6 ± 6.5
358.15 K | 85.2 ± 5.8
368.15 K | 77.2 ± 5.3

CCCCCCCC [octane] + C[N+]1(CCCO)CCOCC1.O=S(=O)([N-]S(=O)(=O)C(F)(F)F)C(F)(F)F
[2]
Conditions | activity coefficient
318.15 K | 315 ± 22
328.15 K | 265 ± 18
338.15 K | 230 ± 16
348.15 K | 199 ± 14
358.15 K | 172 ± 12
368.15 K | 152 ± 10

CCCC(C)=O [pentan-2-one] + C[N+]1(CCCO)CCOCC1.O=S(=O)([N-]S(=O)(=O)C(F)(F)F)C(F)(F)F
[2]
Conditions | activity coefficient
318.15 K | 1.24 ± 0.08
328.15 K | 1.29 ± 0.08
338.15 K | 1.34 ± 0.09
348.15 K | 1.4 ± 0.09
358.15 K | 1.44 ± 0.09
368.15 K | 1.48 ± 0.1

CCC(=O)CC [pentan-3-one] + C[N+]1(CCCO)CCOCC1.O=S(=O)([N-]S(=O)(=O)C(F)(F)F)C(F)(F)F
[2]
Conditions | activity coefficient
318.15 K | 1.28 ± 0.08
328.15 K | 1.33 ± 0.09
338.15 K | 1.4 ± 0.09
348.15 K | 1.45 ± 0.1
358.15 K | 1.52 ± 0.1
368.15 K | 1.57 ± 0.1

CCCO [propan-1-ol] + C[N+]1(CCCO)CCOCC1.O=S(=O)([N-]S(=O)(=O)C(F)(F)F)C(F)(F)F
[2]
Conditions | activity coefficient
318.15 K | 2.06 ± 0.14
328.15 K | 2.01 ± 0.14
338.15 K | 1.96 ± 0.13
348.15 K | 1.92 ± 0.13
358.15 K | 1.88 ± 0.13
368.15 K | 1.84 ± 0.12

CC(C)O [propan-2-ol] + C[N+]1(CCCO)CCOCC1.O=S(=O)([N-]S(=O)(=O)C(F)(F)F)C(F)(F)F
[2]
Conditions | activity coefficient
318.15 K | 1.83 ± 0.12
328.15 K | 1.78 ± 0.12
338.15 K | 1.74 ± 0.12
348.15 K | 1.71 ± 0.11
358.15 K | 1.67 ± 0.11
368.15 K | 1.64 ± 0.11

c1ccncc1 [pyridine] + C[N+]1(CCCO)CCOCC1.O=S(=O)([N-]S(=O)(=O)C(F)(F)F)C(F)(F)F
[2]
Conditions | activity coefficient
318.15 K | 0.414 ± 0.034
328.15 K | 0.461 ± 0.036
338.15 K | 0.501 ± 0.038
348.15 K | 0.55 ± 0.04
358.15 K | 0.593 ± 0.042
368.15 K | 0.639 ± 0.044

C=Cc1ccccc1 [styrene] + C[N+]1(CCCO)CCOCC1.O=S(=O)([N-]S(=O)(=O)C(F)(F)F)C(F)(F)F
[2]
Conditions | activity coefficient
318.15 K | 3.45 ± 0.23
328.15 K | 3.51 ± 0.24
338.15 K | 3.58 ± 0.24
348.15 K | 3.66 ± 0.25
358.15 K | 3.72 ± 0.25
368.15 K | 3.78 ± 0.26

C1CCOC1 [tetrahydrofuran] + C[N+]1(CCCO)CCOCC1.O=S(=O)([N-]S(=O)(=O)C(F)(F)F)C(F)(F)F
[2]
Conditions | activity coefficient
318.15 K | 0.968 ± 0.061
328.15 K | 1.03 ± 0.06
338.15 K | 1.08 ± 0.07
348.15 K | 1.12 ± 0.07
358.15 K | 1.18 ± 0.08
368.15 K | 1.23 ± 0.08

c1ccsc1 [thiophene] + C[N+]1(CCCO)CCOCC1.O=S(=O)([N-]S(=O)(=O)C(F)(F)F)C(F)(F)F
[2]
Conditions | activity coefficient
318.15 K | 1.89 ± 0.13
328.15 K | 1.92 ± 0.13
338.15 K | 1.95 ± 0.13
348.15 K | 1.98 ± 0.13
358.15 K | 2 ± 0.14
368.15 K | 2.03 ± 0.14

Cc1ccccc1 [toluene] + C[N+]1(CCCO)CCOCC1.O=S(=O)([N-]S(=O)(=O)C(F)(F)F)C(F)(F)F
[2]
Conditions | activity coefficient
318.15 K | 4.03 ± 0.27
328.15 K | 4.08 ± 0.28
338.15 K | 4.11 ± 0.28
348.15 K | 4.16 ± 0.28
358.15 K | 4.19 ± 0.29
368.15 K | 4.22 ± 0.29

C=COC(C)=O [vinyl acetate] + C[N+]1(CCCO)CCOCC1.O=S(=O)([N-]S(=O)(=O)C(F)(F)F)C(F)(F)F
[2]
Conditions | activity coefficient
318.15 K | 1.87 ± 0.13
328.15 K | 1.91 ± 0.13
338.15 K | 1.94 ± 0.13
348.15 K | 1.98 ± 0.13
358.15 K | 2 ± 0.14
368.15 K | 2.03 ± 0.14

O [water] + C[N+]1(CCCO)CCOCC1.O=S(=O)([N-]S(=O)(=O)C(F)(F)F)C(F)(F)F
[2]
Conditions | activity coefficient
318.15 K | 1.43 ± 0.09
328.15 K | 1.36 ± 0.09
338.15 K | 1.28 ± 0.08
348.15 K | 1.21 ± 0.08
358.15 K | 1.15 ± 0.07
368.15 K | 1.1 ± 0.07
